We go through 16 compounds from patent US5318972A, “Pyrimidine nucleoside derivative and antiviral agent containing the derivative as active ingredient” (priority 1990, dated 1994).

The IC50 is the point on the concentration scale where inhibition reaches its midpoint. The low end stands for greater potency in that assay, the high end for weaker potency in that assay.

In data set [1] the test system is HIV. The data set can be described thus: Inhibitory activity for HIV infection (prevention of death of HIV-infected MT-4 cells). It counts as cell-based. Conditions: Human immunodeficiency virus 1, MT4, 120 h, 5 days incubation at 37° C., concentration preventing death of 50% of HIV-infected MT-4 cells. On the procedure:
(§1) In RPMI 1640 DM culture medium containing 20 mM of Hepes buffer solution, 10% fetal bovine serum and 20 µg/ml of gentamycin, 3×10^4 MT-4 cells (human T cell clone which is destroyed by the infection of HIV) were infected with HIV in an amount of 100 times as large as expected to cause 50% infection of the cells. Immediately thereafter, a predetermined amount of sample was added to the culture medium using 50 mg/ml sample solutions in dimethyl sulfoxide and the cells were cultured at 37° C.
(§2) After 5 days of incubation, the number of existing cells was counted to determine the concentration of the compound required for preventing the death of 50% of the MT-4 cells. Separately, MT-4 cells were cultured in the same way as above except that they were not infected with HIV to determine the concentration of the compound at which 50% of the MT-4 cells were destroyed.

The nature of data set [2]: Cytotoxicity to uninfected MT-4 cells. It counts as cell-based. Conditions: human, 5 days incubation at 37° C., concentration at which 50% of cells were destroyed, read-out: 50% cytotoxic concentration to MT-4 cells. The protocol: as §1, §2
Data set [3] concerns host cells. Conditions: background, clinical treatment of HIV-infection; cited from earlier work.

In turn, `CCc1c(Sc2cc(Cl)cc(Cl)c2)n(COCCO)c(=O)[nH]c1=O` [Compound 6, 6-(3,5-dichlorophenylthio)-5-ethyl-1-[(2-hydroxyethoxy)methyl]uracil] returned an IC50 in data set [1] of 0.014 µM. Further, the CC50 at 120 h in data set [2] amounted to 51 µM.
For `CCc1c(Cc2cc(C)cc(C)c2)n(COCCO)c(=O)[nH]c1=O` [Compound 12, 6-(3,5-dimethylbenzyl)-5-ethyl-1-[(2-hydroxyethoxy)methyl]uracil], in that order: 0.013 µM and 280 µM.
`CCc1c(Sc2ccccc2)n(COCCO)c(=O)[nH]c1=O` [Compound 39, 5-ethyl-1-[(2-hydroxyethoxy)methyl]-6-(phenylthio)uracil] gave an IC50 in data set [1] of 0.077 µM. Besides, in data set [2], the CC50 at 120 h is 221 µM.
For `CCCc1c(Sc2ccccc2)n(COCCO)c(=O)[nH]c1=O` [compound 4, reference compound], in that order: 13 µM and 282 µM.
In the case of `CCc1c(Sc2cc(C)cc(C)c2)n(COCCO)c(=O)[nH]c1=O` [Compound 2, 6-(3,5-dimethylphenylthio)-5-ethyl-1-[(2-hydroxyethoxy)methyl]uracil], the CC50 at 120 h in data set [2] was 149 µM.
Consider `CCc1c(Sc2ccccc2)n(COCCO)c(=S)[nH]c1=O` [Compound 1, 5-ethyl-1-[(2-hydroxyethoxy)methyl]-6-phenylthio-2-thiouracil], for which the IC50 in data set [1] amounted to 0.11 µM. Also, in data set [2], the CC50 at 120 h worked out at 148 µM.
Turning to `Cc1cc(C)cc(Sc2c(C(C)C)c(=O)[nH]c(=S)n2COCCO)c1` [Compound 22, 6-(3,5-dimethylphenylthio)-1-[(2-hydroxyethoxy)methyl]-5-isopropyl-2-thiouracil], it took 0.0045 µM to reach half-maximal inhibition in data set [1] (IC50). For the same compound, the CC50 at 120 h in data set [2] was found to be 48 µM.
Take `Cc1cc(C)cc(Sc2c(C(C)C)c(=O)[nH]c(=O)n2COCCO)c1` [Compound 21, 6-(3,5-dimethylphenylthio)-1-[(2-hydroxyethoxy)methyl]-5-isopropyluracil]: the CC50 at 120 h in data set [2] was 128 µM.
`Cc1cn([C@H]2C[C@H](N=[N+]=[N-])[C@@H](CO)O2)c(=O)[nH]c1=O` [3'-deoxy-3'-azidothymidine]: in data set [3], the “toxicity in the host cells” value is recorded as “considerable strong toxicity”.
In data set [1], `CC(C)c1c(Sc2ccccc2)n(COCCO)c(=O)[nH]c1=O` [Compound 40, 1-[(2-hydroxyethoxy)methyl]-6-phenylthio-5-isopropyl-uracil] gave an IC50 of 0.063 µM. Besides, in data set [2], the CC50 at 120 h was found to be 231 µM.
The compound `CCc1c(Sc2cc(C)cc(C)c2)n(COCCO)c(=S)[nH]c1=O` [Compound 3, 6-(3,5-dimethylphenylthio)-5-ethyl-1-[(2-hydroxyethoxy)methyl]-2-thiouracil] gave a half-maximal inhibitory concentration (IC50) in data set [1] of 0.0078 µM. Also, the CC50 at 120 h in data set [2] was determined as 227 µM.
Consider `CCCc1c(Sc2ccccc2)n(COCCO)c(=S)[nH]c1=O` [compound 3, reference compound], for which it took 3.4 µM to reach half-maximal inhibition in data set [1] (IC50). In addition, the CC50 at 120 h in data set [2] amounted to 224 µM.
In data set [1], `CC(C)c1c(Sc2ccccc2)n(COCCO)c(=S)[nH]c1=O` [Compound 20, 1-[(2-hydroxyethoxy)methyl]-6-phenylthio-5-isopropyl-2-thiouracil] registered a half-maximal inhibitory concentration (IC50) of 0.059 µM. Also, in data set [2], the CC50 at 120 h is 400 µM.
Compound `Cc1cc(C)cc(Cc2c(C(C)C)c(=O)[nH]c(=O)n2COCCO)c1` [Compound 31, 6-(3,5-dimethylbenzyl)-1-[(2-hydroxyethoxy)methyl]-5-isopropyluracil] came in with an IC50 in data set [1] of 0.0066 µM. Moreover, the CC50 at 120 h in data set [2] worked out at 318 µM.
The like results for `CCc1c(Sc2cc(Cl)cc(Cl)c2)n(COCCO)c(=S)[nH]c1=O` [Compound 7, 6-(3,5-dichlorophenylthio)-5-ethyl-1-[(2-hydroxyethoxy)methyl]-2-thiouracil] were, in that order, 0.043 µM and 64 µM.
The like results for `CCc1c(Cc2ccccc2)n(COCCO)c(=O)[nH]c1=O` [Compound 10, 6-benzyl-5-ethyl-1-[(2-hydroxyethoxy)methyl]uracil] were, in that order, 0.35 µM and 391 µM.
